Data as given in US4325946A, “Anthracycline glycosides, their preparation, use and compositions thereof” (Farmitalia Carlo Erba S.p.A., priority 1979, dated 1982).
Structures can show the parent of a compound that is named as a salt.

Columns and labels:
P-388 ascitic leukemia = experiment: Activity on ascitic P-388 leukemia in mice; format: in vivo; conditions: for Toxic Deaths: macroscopic autoptic findings
Method: (§1) The new compounds according to the invention were tested in HeLa cells in vitro (time of exposure to the drugs: 24 hours) and on P-388 ascitic leukemia in mice in comparison with daunorubicin (daunomycin) and doxorubicin (adriamycin).
Activity on Ascitic P-388 Leukemia in Mice
^(a) Mice were treated i.p. on day 1 after tumor cell inoculation.
^(b) Median survival time of treated mice/median survival time of
^(c) Evaluated on the basis of macroscopic autoptic findings.
^(d) Longtime survival.

HeLa cells = experiment: Effect on HeLa cells cloning efficiency in vitro; format: cell-based; conditions: HeLa cells exposed 24 hours, then plated, colonies evaluated 5 days later; for IC50: Homo sapiens, read-out: ID50 (the source's name)
Method: as §1
Effect on HeLa Cells Cloning Efficiency In Vitro^(a)
^(a) HeLa cells were exposed to the test compounds for 24 hours, then
plated. The number of colonies was evaluated 5 days later.

4'-C-methyl-daunorubicin [I-A]
T/C (median survival time of treated mice/control mice × 100) (P-388 ascitic leukemia; 10 mg/Kg i.p. on day 1): 150% | Toxic Deaths (P-388 ascitic leukemia; 10 mg/Kg i.p. on day 1): 0/10 | T/C (median survival time of treated mice/control mice × 100) (P-388 ascitic leukemia; 20 mg/Kg i.p. on day 1): 155% | Toxic Deaths (P-388 ascitic leukemia; 20 mg/Kg i.p. on day 1): 0/10 | ID50 (HeLa cells): 35 ng/mL

4'-epi-4'-C-methyl-daunorubicin [I-C]
T/C (median survival time of treated mice/control mice × 100) (P-388 ascitic leukemia; 0.29 mg/Kg i.p. on day 1): 140% | Toxic Deaths (P-388 ascitic leukemia; 0.29 mg/Kg i.p. on day 1): 0/10 | T/C (median survival time of treated mice/control mice × 100) (P-388 ascitic leukemia; 0.44 mg/Kg i.p. on day 1): 163% | Toxic Deaths (P-388 ascitic leukemia; 0.44 mg/Kg i.p. on day 1): 0/10 | T/C (median survival time of treated mice/control mice × 100) (P-388 ascitic leukemia; 0.66 mg/Kg i.p. on day 1): 158% | Toxic Deaths (P-388 ascitic leukemia; 0.66 mg/Kg i.p. on day 1): 1/20 | ID50 (HeLa cells): 2.8 ng/mL

4'-epi-4'-C-methyl-doxorubicin [I-D]
T/C (median survival time of treated mice/control mice × 100) (P-388 ascitic leukemia; 1 mg/Kg i.p. on day 1): 150% | Toxic Deaths (P-388 ascitic leukemia; 1 mg/Kg i.p. on day 1): 0/10 | T/C (median survival time of treated mice/control mice × 100) (P-388 ascitic leukemia; 2 mg/Kg i.p. on day 1): 156% | Toxic Deaths (P-388 ascitic leukemia; 2 mg/Kg i.p. on day 1): 0/10 | ID50 (HeLa cells): 0.62 ng/mL

COc1cccc2c1C(=O)c1c(O)c3c(c(O)c1C2=O)C[C@@](O)(C(C)=O)C[C@@H]3O[C@H]1C[C@H](N)[C@H](O)[C@H](C)O1 [Daunorubicin . HCl, Daunorubicin, reference compound]
T/C (median survival time of treated mice/control mice × 100) (P-388 ascitic leukemia; 2.9 mg/Kg i.p. on day 1): 175% | Toxic Deaths (P-388 ascitic leukemia; 2.9 mg/Kg i.p. on day 1): 0/40 | T/C (median survival time of treated mice/control mice × 100) (P-388 ascitic leukemia; 4.4 mg/Kg i.p. on day 1): 180% | Toxic Deaths (P-388 ascitic leukemia; 4.4 mg/Kg i.p. on day 1): 3/39 | IC50 (HeLa cells): 9 ng/mL

COc1cccc2c1C(=O)c1c(O)c3c(c(O)c1C2=O)C[C@@](O)(C(=O)CO)C[C@@H]3O[C@H]1C[C@H](N)[C@H](O)[C@H](C)O1 [Doxorubicin . HCl, Doxorubicin, reference compound]
LTS (longtime survival) (P-388 ascitic leukemia; 6.6 mg/Kg i.p. on day 1): 2/30 | T/C (median survival time of treated mice/control mice × 100) (P-388 ascitic leukemia; 6.6 mg/Kg i.p. on day 1): 193% | Toxic Deaths (P-388 ascitic leukemia; 6.6 mg/Kg i.p. on day 1): 0/30 | LTS (longtime survival) (P-388 ascitic leukemia; 10 mg/Kg i.p. on day 1): 5/28 | T/C (median survival time of treated mice/control mice × 100) (P-388 ascitic leukemia; 10 mg/Kg i.p. on day 1): 227% | Toxic Deaths (P-388 ascitic leukemia; 10 mg/Kg i.p. on day 1): 1/28 | IC50 (HeLa cells): 8.4 ng/mL

COc1cccc2c1C(=O)c1c(O)c3c(c(O)c1C2=O)CC(O)(C(=O)CO)CC3OC1CC(N)C(C)(O)C(C)O1.Cl (stereo not shown) [I-B, 4'-C-methyl-doxorubicin]
T/C (median survival time of treated mice/control mice × 100) (P-388 ascitic leukemia; 6 mg/Kg i.p. on day 1): 186% | Toxic Deaths (P-388 ascitic leukemia; 6 mg/Kg i.p. on day 1): 0/10 | T/C (median survival time of treated mice/control mice × 100) (P-388 ascitic leukemia; 7.7 mg/Kg i.p. on day 1): 172% | Toxic Deaths (P-388 ascitic leukemia; 7.7 mg/Kg i.p. on day 1): 0/10 | LTS (longtime survival) (P-388 ascitic leukemia; 10 mg/Kg i.p. on day 1): 3/20 | T/C (median survival time of treated mice/control mice × 100) (P-388 ascitic leukemia; 10 mg/Kg i.p. on day 1): 233% | Toxic Deaths (P-388 ascitic leukemia; 10 mg/Kg i.p. on day 1): 2/20 | ID50 (HeLa cells): 18 ng/mL
